ChEMBL document CHEMBL1137659, “Molecular epidemiology of clinical isolates of carbapenem-resistant Acinetobacter spp. from Chinese hospitals” (2007)
Values after ≈ are worked out from the molar mass of the structure shown.

Columns and labels:
[1] = test system: Acinetobacter genospecies 3; test: Antimicrobial activity against imipenem and meropenem-resistant Acinetobacter genospecies 3 isolate PUA7 by CLSI agar dilution method
Acinetobacter baumannii [2] = test: Antimicrobial activity against imipenem and meropenem-resistant Acinetobacter baumannii isolate JN45 by CLSI agar dilution method; format: functional
[3] = test system: Acinetobacter genospecies 10/11; test: Antimicrobial activity against imipenem and meropenem-resistant Acinetobacter genospecies 10/11 isolate ZS5 by CLSI agar dilution method
Acinetobacter baumannii [4] = test: Antimicrobial activity against imipenem and meropenem-resistant Acinetobacter baumannii isolate CY7 by CLSI agar dilution method; format: functional
Acinetobacter baumannii [5] = test: Antimicrobial activity against imipenem and meropenem-resistant Acinetobacter baumannii isolate PUA1 by CLSI agar dilution method; format: functional
[6] = test system: Acinetobacter genospecies 10/11; test: Antimicrobial activity against imipenem and meropenem-resistant Acinetobacter genospecies 10/11 isolate ZS15 by CLSI agar dilution method
Acinetobacter baumannii [7] = test: Antimicrobial activity against imipenem and meropenem-resistant Acinetobacter baumannii isolate PU73 by CLSI agar dilution method; format: functional
Acinetobacter baumannii [8] = test: Antimicrobial activity against imipenem and meropenem-resistant Acinetobacter baumannii isolate BJ3-9 by CLSI agar dilution method; format: functional
Acinetobacter baumannii [9] = test: Antimicrobial activity against imipenem and meropenem-resistant Acinetobacter baumannii isolate ZJ36 by CLSI agar dilution method; format: functional
[10] = test system: Acinetobacter genospecies 13TU; test: Antimicrobial activity against imipenem and meropenem-resistant Acinetobacter genospecies 13TU isolate CY6 by CLSI agar dilution method
Acinetobacter baumannii [11] = test: Antimicrobial activity against imipenem and meropenem-resistant Acinetobacter baumannii isolate FZ84 by CLSI agar dilution method; format: functional
Acinetobacter baumannii [12] = test: Antimicrobial activity against imipenem and meropenem-resistant Acinetobacter baumannii isolate BJ55 by CLSI agar dilution method; format: functional
Acinetobacter baumannii [13] = test: Antimicrobial activity against imipenem and meropenem-resistant Acinetobacter baumannii isolate ZJ32 by CLSI agar dilution method; format: functional
Acinetobacter baumannii [14] = test: Antimicrobial activity against imipenem and meropenem-resistant Acinetobacter baumannii isolate BJ52 by CLSI agar dilution method; format: functional
Acinetobacter baumannii [15] = test: Antimicrobial activity against imipenem and meropenem-resistant Acinetobacter baumannii isolate FW-F1 by CLSI agar dilution method; format: functional
[16] = test system: Acinetobacter phenon 6/ct 13TU; test: Antimicrobial activity against imipenem and meropenem-resistant Acinetobacter phenon 6/ct 13TU isolate FZ4A18 by CLSI agar dilution method
[17] = test system: Acinetobacter phenon 6/ct 13TU; test: Antimicrobial activity against imipenem and meropenem-resistant Acinetobacter phenon 6/ct 13TU isolate PU86 by CLSI agar dilution method
Acinetobacter baumannii [18] = test: Antimicrobial activity against imipenem and meropenem-resistant Acinetobacter baumannii isolate DL34 by CLSI agar dilution method; format: functional
Acinetobacter baumannii [19] = test: Antimicrobial activity against imipenem and meropenem-resistant Acinetobacter baumannii isolate PU4A22 by CLSI agar dilution method; format: functional
Acinetobacter baumannii [20] = test: Antimicrobial activity against imipenem and meropenem-resistant Acinetobacter baumannii isolate BJ3-23 by CLSI agar dilution method; format: functional
Acinetobacter phenon 5 = test: Antimicrobial activity against imipenem and meropenem-resistant Acinetobacter phenon 5 isolate PUA6 by CLSI agar dilution method
Acinetobacter baumannii [21] = test: Antimicrobial activity against imipenem and meropenem-resistant Acinetobacter baumannii isolate ZJ49 by CLSI agar dilution method; format: functional
[22] = test system: Acinetobacter genospecies 3; test: Antimicrobial activity against imipenem and meropenem-resistant Acinetobacter genospecies 3 isolate PU78 by CLSI agar dilution method
Acinetobacter baumannii [23] = test: Antimicrobial activity against imipenem and meropenem-resistant Acinetobacter baumannii isolate NJ59 by CLSI agar dilution method; format: functional
Acinetobacter baumannii [24] = test: Antimicrobial activity against imipenem and meropenem-resistant Acinetobacter baumannii isolate ZJ58 by CLSI agar dilution method; format: functional
Acinetobacter baumannii [25] = test: Antimicrobial activity against imipenem and meropenem-resistant Acinetobacter baumannii isolate PU4A1 by CLSI agar dilution method; format: functional
[26] = test system: Acinetobacter phenon 6/ct 13TU (Acinetobacter sp.); test: Antimicrobial activity against imipenem and meropenem-resistant Acinetobacter phenon 6/ct 13TU isolate PU86 by CLSI agar dilution method
[27] = test system: Acinetobacter genospecies 3 (Acinetobacter genomosp. 3); test: Antimicrobial activity against imipenem and meropenem-resistant Acinetobacter genospecies 3 isolate PU78 by CLSI agar dilution method; conditions: Acinetobacter genospecies 3, isolate PU78

Compound | MIC [1] | MIC (Acinetobacter baumannii [2]) | MIC [3] | MIC (Acinetobacter baumannii [4]) | MIC (Acinetobacter baumannii [5]) | MIC (Acinetobacter baumannii [7]) | MIC (Acinetobacter baumannii [8]) | MIC (Acinetobacter baumannii [9]) | MIC [10] | MIC (Acinetobacter baumannii [11]) | MIC (Acinetobacter baumannii [12]) | MIC (Acinetobacter baumannii [13]) | MIC (Acinetobacter baumannii [14]) | MIC (Acinetobacter baumannii [15]) | MIC (Acinetobacter baumannii [18]) | MIC (Acinetobacter baumannii [19]) | MIC (Acinetobacter baumannii [20]) | MIC (Acinetobacter phenon 5) | MIC (Acinetobacter baumannii [21]) | MIC (Acinetobacter baumannii [23]) | other results
COLISTIN | 0.5 µg/mL | 1 µg/mL | 0.5 µg/mL | 0.5 µg/mL | 0.5 µg/mL | 1 µg/mL | 1 µg/mL | 1 µg/mL | 0.5 µg/mL | 0.5 µg/mL | 0.5 µg/mL | 1 µg/mL | 1 µg/mL | 0.5 µg/mL | 0.5 µg/mL | 1 µg/mL | 1 µg/mL | 0.5 µg/mL | 1 µg/mL | 0.5 µg/mL | MIC [6]: 1 µg/mL; MIC [16]: 1 µg/mL; MIC [17]: 1 µg/mL; MIC [22]: 1 µg/mL; MIC (Acinetobacter baumannii [24]): 1 µg/mL; MIC (Acinetobacter baumannii [25]): 0.5 µg/mL
C[C@@H](O)[C@H]1C(=O)N2C(C(=O)O)=C(S[C@@H]3CN[C@H](C(=O)N(C)C)C3)[C@H](C)[C@H]12 [MEROPENEM] | 32 µg/mL (≈ 83.4 µM) | 16 µg/mL (≈ 41.7 µM) | 128 µg/mL (≈ 334 µM) | 64 µg/mL (≈ 167 µM) | 64 µg/mL (≈ 167 µM) | 64 µg/mL (≈ 167 µM) | 32 µg/mL (≈ 83.4 µM) | 16 µg/mL (≈ 41.7 µM) | 32 µg/mL (≈ 83.4 µM) | 16 µg/mL (≈ 41.7 µM) | 32 µg/mL (≈ 83.4 µM) | 32 µg/mL (≈ 83.4 µM) | 32 µg/mL (≈ 83.4 µM) | 64 µg/mL (≈ 167 µM) | 32 µg/mL (≈ 83.4 µM) | 128 µg/mL (≈ 334 µM) | 64 µg/mL (≈ 167 µM) | 64 µg/mL (≈ 167 µM) | 32 µg/mL (≈ 83.4 µM) | 16 µg/mL (≈ 41.7 µM) | MIC [6]: 64 µg/mL (≈ 167 µM); MIC [16]: 16 µg/mL (≈ 41.7 µM); MIC [26]: 32 µg/mL (≈ 83.4 µM); MIC [27]: 32 µg/mL (≈ 83.4 µM); MIC (Acinetobacter baumannii [24]): 32 µg/mL (≈ 83.4 µM); MIC (Acinetobacter baumannii [25]): 64 µg/mL (≈ 167 µM)
CO[C@H]1/C=C/O[C@@]2(C)Oc3c(C)c(O)c4c(O)c(c(/C=N/N5CCN(C)CC5)c(O)c4c3C2=O)NC(=O)/C(C)=C\C=C\[C@H](C)[C@H](O)[C@@H](C)[C@@H](O)[C@@H](C)[C@H](OC(C)=O)[C@@H]1C [RIFAMPIN] | 128 µg/mL (≈ 156 µM) | > 256 µg/mL | 256 µg/mL (≈ 311 µM) | 4 µg/mL (≈ 4.86 µM) | 32 µg/mL (≈ 38.9 µM) | 4 µg/mL (≈ 4.86 µM) | 8 µg/mL (≈ 9.72 µM) | 8 µg/mL (≈ 9.72 µM) | > 256 µg/mL | 128 µg/mL (≈ 156 µM) | 8 µg/mL (≈ 9.72 µM) | 16 µg/mL (≈ 19.4 µM) | 8 µg/mL (≈ 9.72 µM) | 8 µg/mL (≈ 9.72 µM) | 4 µg/mL (≈ 4.86 µM) | 4 µg/mL (≈ 4.86 µM) | 8 µg/mL (≈ 9.72 µM) | > 256 µg/mL | 8 µg/mL (≈ 9.72 µM) | 8 µg/mL (≈ 9.72 µM) | MIC [6]: > 256 µg/mL; MIC [16]: 4 µg/mL (≈ 4.86 µM); MIC [26]: 256 µg/mL (≈ 311 µM); MIC [27]: 4 µg/mL (≈ 4.86 µM); MIC (Acinetobacter baumannii [24]): 8 µg/mL (≈ 9.72 µM); MIC (Acinetobacter baumannii [25]): 4 µg/mL (≈ 4.86 µM)
C[C@@H](O)[C@H]1C(=O)N2C(C(=O)O)=C(SCCNC=N)C[C@H]12 [IMIPENEM ANHYDROUS] | 16 µg/mL (≈ 53.4 µM) | 32 µg/mL (≈ 107 µM) | 64 µg/mL (≈ 214 µM) | 64 µg/mL (≈ 214 µM) | 64 µg/mL (≈ 214 µM) | 64 µg/mL (≈ 214 µM) | 64 µg/mL (≈ 214 µM) | 16 µg/mL (≈ 53.4 µM) | 32 µg/mL (≈ 107 µM) | 16 µg/mL (≈ 53.4 µM) | 32 µg/mL (≈ 107 µM) | 64 µg/mL (≈ 214 µM) | 32 µg/mL (≈ 107 µM) | 64 µg/mL (≈ 214 µM) | 32 µg/mL (≈ 107 µM) | 64 µg/mL (≈ 214 µM) | 64 µg/mL (≈ 214 µM) | 64 µg/mL (≈ 214 µM) | 32 µg/mL (≈ 107 µM) | 16 µg/mL (≈ 53.4 µM) | MIC [6]: 64 µg/mL (≈ 214 µM); MIC [16]: 16 µg/mL (≈ 53.4 µM); MIC [26]: 16 µg/mL (≈ 53.4 µM); MIC [27]: 16 µg/mL (≈ 53.4 µM); MIC (Acinetobacter baumannii [24]): 16 µg/mL (≈ 53.4 µM); MIC (Acinetobacter baumannii [25]): 64 µg/mL (≈ 214 µM)
GENTAMICIN | > 256 µg/mL | > 256 µg/mL | > 256 µg/mL | > 256 µg/mL | > 256 µg/mL | > 256 µg/mL | > 256 µg/mL | 1 µg/mL | > 256 µg/mL | > 256 µg/mL | > 256 µg/mL | > 256 µg/mL | 4 µg/mL | > 256 µg/mL | > 256 µg/mL | > 256 µg/mL | > 256 µg/mL | > 256 µg/mL | > 256 µg/mL | > 256 µg/mL | MIC [17]: > 256 µg/mL; MIC [22]: 1 µg/mL; MIC (Acinetobacter baumannii [24]): > 256 µg/mL; MIC (Acinetobacter baumannii [25]): > 256 µg/mL
